Assay results: patent US12281113B2, “Crystalline forms of a KRas G12C inhibitor” (MIRATI THERAPEUTICS, INC., priority 2020, dated 2025)
Several values for one entry are separate records, joined by “and”; a condition that tells them apart may be missing. Equal entries are not always repeated.

Columns and labels:
Type in all cases: physicochemical
[1] = 1 month stability of MRTX849 crystalline vs amorphous, HPLC evaluation after accelerated stress conditions
[2] = Dynamic vapor sorption, 5% to 95% RH
Description: Vapor Sorption isotherms were obtained using a Surface Measurement System (SMS) DVS Intrinsic moisture sorption analyzer, controlled by DVS Intrinsic Control software. Samples were not dried prior to analysis. Sorption and desorption data were collected over a range of 5%-95% relative humidity (RH) at 10% RH increments under a nitrogen purge. The equilibrium criterion used for analysis was less than 0.0100% weight change in 5 minutes with a maximum equilibration time of 3 hours.
Vapor sorption data were collected on a Surface Measurement System DVS Intrinsic instrument. Samples were not dried prior to analysis. Sorption and desorption data were collected over a range from 5% to 95% RH at 10% RH increments under a nitrogen purge. The equilibrium criterion used for analysis was less than 0.0100% weight change in 5 minutes with a maximum equilibration time of 3 hours.

[3] = Photostability study (1/2 ICH conditions)
Description: (§1) 40° C./75% RH and 60° C. in loosely capped, foil-wrapped small glass vials. Data was obtained for up to two weeks for samples stored at 60° C. and up to two months for samples stored at 25° C./60% RH and 40° C./75% RH. In addition, data was generated from photostability study performed on all three lots as a part of the protocol.

[4] = Comparative thermal stability study of Form A, Form B and amorphous MRTX849 Drug Substance; conditions: for change in appearance on storage: two weeks at 60° C., two months at 25° C./60% RH and 40° C./75% RH
Description: as §1

[5] = Dynamic vapor sorption isotherm, 25° C., 0-90% RH; conditions: for weight gain (DVS): sorption
Description: (§2) Sorption isotherms of crystalline Form A were obtained using a SMS GVS Intrinsic moisture sorption analyzer, controlled by GVS Intrinsic Control software. The sample temperature was maintained at 25° C. by the instrument controls. The humidity was controlled by mixing streams of dry and wet nitrogen, with a total flow rate of 200 ml/min. The relative humidity was measured by a calibrated Rotronic probe (dynamic range of 1.0-100% RH), located near the sample. The weight change (mass relaxation) of the sample as a function of % RH was constantly monitored by a microbalance (accuracy ±0.005 mg).
(§3) The sample was loaded and unloaded at 40% RH and 25° C. (typical room conditions). A moisture sorption isotherm was performed as outlined below (2 scans per complete cycle). The standard isotherm was performed at 25° C. at 10% RH intervals over a 0-90% RH range. A double cycle (4 scans) was carried out. Data analysis was carried out within Microsoft Excel using the DVS Analysis Suite.
as §2, with “B” for “A”, “DVS” for “GVS”, “change,” for “change”
as §3, with “Briefly, a sample of crystalline Form B was placed in a tared mesh stainless steel basket under ambient conditions. The sample” for “The sample”

[6] = 0.5 × ICH: Vis Stress at 600 klux-hrs, UV Stress at 100 W-hr/m^2

Row | SMILES | Purity [3, 6] | Purity ([3]; Control) | Purity ([3]; T(0)) | Appearance ([4]; 1 Month 25° C./60% RH) | Total impurities ([4]; 1 Month 25° C./60% RH) [%] | Appearance ([4]; 1 Month 40° C./75% RH) | Total impurities ([4]; 1 Month 40° C./75% RH) [%] | Appearance ([4]; 1 Week 60° C.) | Total impurities ([4]; 1 Week 60° C.) [%] | Appearance ([4]; 2 Months 25° C./60% RH) | Appearance ([4]; 2 Months 40° C./75% RH) | Total impurities ([4]; 2 Months 40° C./75% RH) | Appearance ([4]; 2 Weeks 40° C./75% RH) | Total impurities ([4]; 2 Weeks 40° C./75% RH) [%] | Appearance ([4]; 2 Weeks 60° C.) | Total impurities ([4]; 2 Weeks 60° C.) | Appearance ([4]; Initial T(0)) | change in appearance on storage [4] | weight gain (DVS) ([5]; at 90% RH) [%] | Total impurities ([4]; 2 Months 25° C./60% RH) [%] | other results
1 | C=C(F)C(=O)N1CCN(c2nc(OC[C@@H]3CCCN3C)nc3c2CCN(c2cccc4cccc(Cl)c24)C3)C[C@@H]1CC#N [API standard] |  |  |  |  |  |  |  |  |  |  |  |  |  |  |  |  |  |  |  |  | Total impurities (%) ([1]; API standard): 0.71%
2 | C=C(F)C(=O)N1CCN(c2nc(OC[C@@H]3CCCN3C)nc3c2CCN(c2cccc4cccc(Cl)c24)C3)C[C@@H]1CC#N [Form E, 2-[(2S)-4-[7-(8-chloro-1-naphthyl)-2-[[(2S)-1-methylpyrrolidin-2-yl]methoxy]-6,8-dihydro-5H-pyrido[3,4-d]pyrimidin-4-yl]-1-(2-fluoroprop-2-enoyl)piperazin-2-yl]acetonitrile Form E] |  |  |  |  |  |  |  |  |  |  |  |  |  |  |  |  |  |  |  |  | gradual weight gain (DVS) ([2]; between 5% to 96% RH): 1.2%
3 | C=C(F)C(=O)N1CCN(c2nc(OC[C@@H]3CCCN3C)nc3c2CCN(c2cccc4cccc(Cl)c24)C3)C[C@@H]1CC#N [Form B, 2-[(2S)-4-[7-(8-chloro-1-naphthyl)-2-[[(2S)-1-methylpyrrolidin-2-yl]methoxy]-6,8-dihydro-5H-pyrido[3,4-d]pyrimidin-4-yl]-1-(2-fluoroprop-2-enoyl)piperazin-2-yl]acetonitrile Form B] | 98.41 | 99.74 | 99.75 | Creamy | 0.23 | Creamy | 0.35 | Creamy | 0.31 | Creamy | Creamy | 0.4% and 0.44% | Creamy | 0.37 | Creamy | 0.4% | Creamy | no change in appearance | 2.5 |  | water corresponding to DVS weight gain ([2]; 5% to 95% RH): 1.3 mol water; weight gain (DVS) ([2]; between 5% and 55% RH): 0.2 wt %; weight gain increase (DVS) ([2]; between 55% and 95% RH): 3.5%; Total impurities ([4]; Initial T(0)): 0.3%; weight change (DVS) on desorption ([5]; at 50% RH after desorption from 70% RH): 0.4%; weight gain (DVS) ([5]; at 60% RH): about 0.6%; weight change (DVS) on desorption ([5]; at 70% RH after desorption from 90% RH): 2.2%; weight gain (DVS) ([5]; at 70% RH): 2.9%
4 | C=C(F)C(=O)N1CCN(c2nc(OC[C@@H]3CCCN3C)nc3c2CCN(c2cccc4cccc(Cl)c24)C3)C[C@@H]1CC#N [Form A, 2-[(2S)-4-[7-(8-chloro-1-naphthyl)-2-[[(2S)-1-methylpyrrolidin-2-yl]methoxy]-6,8-dihydro-5H-pyrido[3,4-d]pyrimidin-4-yl]-1-(2-fluoroprop-2-enoyl)piperazin-2-yl]acetonitrile Form A] | 96.74 | 98.91 | 98.86 | Off-white | 0.98 | Off-white | 1.04 | Off-white | 1.27 | Off-white | Off-white | 1.2% and 1.16% | Off-white | 1.07 | Off-white | 1.4% and 1.43% | Off-white | no change in appearance | 0.6 | 1.06 | observed weight gain (DVS) ([2]; from 5% to 90% RH): 0.4%; weight gain (DVS) ([5]; at 40% RH): about 0.1%
5 | C=C(F)C(=O)N1CCN(c2nc(OC[C@@H]3CCCN3C)nc3c2CCN(c2cccc4cccc(Cl)c24)C3)C[C@@H]1CC#N [MRTX849 crystalline, 2-[(2S)-4-[7-(8-chloro-1-naphthyl)-2-[[(2S)-1-methylpyrrolidin-2-yl]methoxy]-6,8-dihydro-5H-pyrido[3,4-d]pyrimidin-4-yl]-1-(2-fluoroprop-2-enoyl)piperazin-2-yl]acetonitrile] |  |  |  |  |  |  |  |  |  |  |  |  |  |  |  |  |  |  |  |  | Total impurities (%) ([1]; 40° C./75% RH, 1 month): 0.77%
6 | C=C(F)C(=O)N1CCN(c2nc(OC[C@@H]3CCCN3C)nc3c2CCN(c2cccc4cccc(Cl)c24)C3)C[C@@H]1CC#N [Amorphous, 2-[(2S)-4-[7-(8-chloro-1-naphthyl)-2-[[(2S)-1-methylpyrrolidin-2-yl]methoxy]-6,8-dihydro-5H-pyrido[3,4-d]pyrimidin-4-yl]-1-(2-fluoroprop-2-enoyl)piperazin-2-yl]acetonitrile] | 91.25 | 98.42 | 98.59 | Tan Solid | 1.42 | Tan Solid | 2.36 | Brown Solid | 5.93 | Tan Solid | Light Brown | 5.73% | Tan Solid | 1.95 | Brown Solid | 9.89% | Tan Solid |  |  | 1.86 | Total impurities ([4]; 2 Months 40° C./75% RH, listed as amorphous material): 5.7%; Total impurities ([4]; 2 Weeks 60° C., listed as amorphous material): 9.9%; Color change on storage ([4]; 60° C. condition and after two months at 40° C./75% RH): changed from tan to brown/light brown; Total impurities ([4]; Initial T(0), listed as amorphous material): 1.4%; Total impurities (%) ([1]; 25° C./60% RH, 1 month): 2.21%; Total impurities (%) ([1]; 40° C./75% RH, 1 month, open): 2.98%; Total impurities (%) ([1]; 40° C./75% RH, 1 month, listed as MRTX849 amorphous): 3.28%
